From patent US8258140B2 (Astrazeneca AB, priority 2009, dated 2012) come the findings set out here.

This test addresses T1, Androgen Receptor (AR) in the LNCaP prostate carcinoma cell line (Homo sapiens, UniProt P10275, T878A).
T1 construct: cell based immuno-fluorescence assay using the LNCaP prostate epithelial cell line; host or cells: LNCaP clone FGC
T1 sequence (P10275 1-920 T878A): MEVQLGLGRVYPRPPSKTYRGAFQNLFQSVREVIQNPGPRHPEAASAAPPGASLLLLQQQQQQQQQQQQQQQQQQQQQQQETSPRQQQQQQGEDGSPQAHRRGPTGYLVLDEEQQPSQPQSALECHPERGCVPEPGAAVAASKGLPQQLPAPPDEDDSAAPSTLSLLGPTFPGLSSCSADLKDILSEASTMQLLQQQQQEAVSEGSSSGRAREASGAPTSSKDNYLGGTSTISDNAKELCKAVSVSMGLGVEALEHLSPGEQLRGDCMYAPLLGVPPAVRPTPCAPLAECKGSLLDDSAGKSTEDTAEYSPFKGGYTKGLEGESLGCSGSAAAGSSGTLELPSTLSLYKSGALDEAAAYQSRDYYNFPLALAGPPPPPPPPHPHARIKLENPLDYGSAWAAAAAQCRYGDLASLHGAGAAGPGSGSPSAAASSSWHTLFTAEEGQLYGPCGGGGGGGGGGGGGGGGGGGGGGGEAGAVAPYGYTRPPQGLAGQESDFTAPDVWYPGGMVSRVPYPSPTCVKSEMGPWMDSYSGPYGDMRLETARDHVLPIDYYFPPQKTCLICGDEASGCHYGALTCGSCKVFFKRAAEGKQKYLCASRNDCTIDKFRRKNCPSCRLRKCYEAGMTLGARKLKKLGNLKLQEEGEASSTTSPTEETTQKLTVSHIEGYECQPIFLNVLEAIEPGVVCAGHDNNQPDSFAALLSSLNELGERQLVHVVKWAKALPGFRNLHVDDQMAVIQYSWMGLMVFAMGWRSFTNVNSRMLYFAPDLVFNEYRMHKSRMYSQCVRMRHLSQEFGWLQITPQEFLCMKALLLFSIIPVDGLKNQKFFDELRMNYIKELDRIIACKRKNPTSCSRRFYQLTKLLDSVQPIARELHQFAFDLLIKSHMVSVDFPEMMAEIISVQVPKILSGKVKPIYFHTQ
The test can be described thus: LNCaP Androgen Receptor Down-Regulation Cell Assay (immunofluorescence end point). Particulars: LNCaP cells, compound incubation 20-22 hours, concentration giving 50% reduction of the AR signal. In kind it is cell-based. The method, then: The ability of compounds to reduce Androgen Receptor (AR) numbers was assessed in a cell based immuno-fluorescence assay using the LNCaP prostate epithelial cell line.
This immunofluorescence end point assay measures the ability of a test compound to down-regulate and reduce measured levels of the AR in the LNCaP prostate carcinoma cell line (LNCaP clone FGC (CRL-1740) obtained from the American Type Culture Collection (ATCC)).
LNCaP cells were cultured in Growth Medium (phenol red free Roswell Park Memorial Institute (RPMI) 1640 (Invitrogen Code no. 11835-063) containing 2 mM L-Glutamine (Invitrogen Code no. 25030-024) and 1% (v/v) Penicillin/Streptomycin (10000 units/ml Penicillin and 10000 μg/ml of Streptomycin utilising penicillin G (sodium salt) and streptomycin sulphate: prepared in normal saline, Invitrogen Code no. 15140122) and 10% (v/v) foetal bovine serum (FBS)) in a 5% CO2 air incubator at 37° C. Cells for assay were harvested from T175 stock flasks by washing once in PBS (phosphate buffered saline, pH 7.4) (Invitrogen Code no. 14190-094) and harvested using 5 mls of 1× Trypsin/ethylaminediaminetetraacetic acid (EDTA) (10× Trypsin-EDTA, 5.0 g/L Trypsin, 2.0 g/L of EDTA.4Na and 8.5 g/L of NaCl, without Phenol Red, Invitrogen Code no. 15400-054) diluted in PBS solution. A 5 ml volume of Growth Medium was added to each flask (as above except that 5% (v/v) charcoal stripped FBS (HyClone Code no. SH30068.03) was included instead of 10% (v/v) FBS). Cells were syringed at least twice using a sterile 18 G×1.5″ (1.2×40 mm) broad gauge needle and cell density was measured using a haemocytometer. Cells were further diluted in Growth Medium plus 5% (v/v) charcoal stripped FBS and seeded at a density of 6.5×10^3 cells per well (in 90 ul) into transparent, black, tissue culture treated 96 well plates (Packard, No. 6005182).
Test data reported herein was generated using two different compounds preparation and dosing methods. In method (1) a 10 mM compound stock solution in 100% (v/v) DMSO was serially diluted in 4-fold steps in 100% (v/v) DMSO using a Thermo Scientific Matrix SerialMate. The diluted compounds were then further diluted 1 in 30 in assay media using a Thermo Scientific Matrix PlateMate and a 10 μl aliquot of this dilution was dosed to cells manually using a multi-channel pipette. In method (2) starting with a 10 mM compound stock solution, the Labcyte Echo 550 was used to generate a compound concentration response set diluted in 30 μl of assay media. The Echo 550 is a liquid handler that uses acoustic technology to perform direct microplate-to-microplate transfers of DMSO compound solutions. The system can be programmed to transfer volumes as low as 2.5 nL in multiple increments between microplates and in so doing generates a serial dilution of compound which is then back-filled to normalise the DMSO concentration across the dilution range. A 10 μl volume of diluted compound is then dosed to cells using a Thermo Scientific Matrix PlateMate.
Plates were incubated overnight at 37° C., 5% CO2. Wells were then dosed with compound prepared by one of the 2 methods above and further incubated for 20-22 hours at 37° C., 5% CO2. Plates were fixed by the addition of 20 μl of 10% (v/v) formaldehyde solution (in PBS) to each well (final formaldehyde conc.=1.67% (v/v)) and left at room temperature for 10 mins. This fixative solution was removed and cells were washed with 250 μl of PBS/0.05% (v/v) Tween 20 (PBST) using an automated plate washer. This process was then repeated twice more.
Immunostaining was performed at room temperature. Cells were permeabilised by the addition of 35 μl of PBS containing 0.5% Tween 20 and incubated for 1 hour at room temperature. Permeabilisation solution was removed and cells were washed with 250 μl of PBST using an automated plate washer. This process was then repeated twice more. […]
For `Cn1nccc1CCOc1ccc(C2(O)CCN(C3=Nn4c(nnc4C(F)(F)F)CC3)CC2)cc1` [Example 36, 4-{4-[2-(1-methyl-1H-pyrazol-5-yl)ethoxy]phenyl}-1-[3-(trifluoromethyl)-7,8-dihydro[1,2,4]triazolo[4,3-b]pyridazin-6-yl]piperidin-4-ol], the IC50 is 4.5 µM. The figure for `CCc1nccn1CCOc1ccc(N2CCN(C3=Nn4c(nnc4C(F)(F)F)CC3)CC2)cc1` [Example 39, 6-(4-{4-[2-(2-ethyl-1H-imidazol-1-yl)ethoxy]phenyl}piperazin-1-yl)-3-(trifluoromethyl)-7,8-dihydro[1,2,4]triazolo[4,3-b]pyridazine] is 4.8 µM; for `FC(F)(F)c1ccn(CCOc2ccc(N3CCN(C4=Nn5c(nnc5C(F)(F)F)CC4)CC3)cc2)n1` [Example 40, 3-(trifluoromethyl)-6-[4-(4-{2-[3-(trifluoromethyl)-1H-pyrazol-1-yl]ethoxy}phenyl)piperazin-1-yl]-7,8-dihydro[1,2,4]triazolo[4,3-b]pyridazine] it is 1.5 µM. In turn, `CCc1nccn1CCOc1ccc(C2CCN(C3=Nn4c(nnc4C(F)(F)F)CC3)CC2)cc1` [Example 42, 6-(4-{4-[2-(2-ethyl-1H-imidazol-1-yl)ethoxy]phenyl}piperidin-1-yl)-3-(trifluormethyl)-7,8-dihydro[1,2,4]triazolo[4,3-b]pyridazine] showed an IC50 of 0.66 µM. This IC50 is about 2.3-fold lower than that of the compound before. `Cc1cc(C)n(CCOc2ccc(C3CCN(C4=Nn5c(nnc5C(F)(F)F)CC4)CC3)cc2)n1` [Example 43, 6-(4-{4-[2-(3,5-dimethyl-1H-pyrazol-1-yl)ethoxy]phenyl}piperidin-1-yl)-3-(trifluoromethyl)-7,8-dihydro[1,2,4]triazolo[4,3-b]pyridazine] displayed an IC50 of 1 µM. In turn, `FC(F)(F)c1ccn(CCOc2ccc(C3CCN(C4=Nn5c(nnc5C(F)(F)F)CC4)CC3)cc2)n1` [Example 44, 3-(trifluoromethyl)-6-[4-(4-{2-[3-(trifluoromethyl)-1H-pyrazol-1-yl]ethoxy}phenyl)piperidin-1-yl]-7,8-dihydro[1,2,4]triazolo[4,3-b]pyridazine] displayed an IC50 of 0.55 µM. The figure for `CC(=O)N1CCN(CCOc2ccc(C3(O)CCN(C4=Nn5c(nnc5C(F)(F)F)CC4)CC3)cc2)CC1` [Example 45, 4-{4-[2-(4-acetylpiperazin-1-yl)ethoxy]phenyl}-1-[3-(trifluoromethyl)-7,8-dihydro[1,2,4]triazolo[4,3-b]pyridazin-6-yl]piperidin-4-ol] is 12 µM. The figure for `CCN1CCN(CCOc2ccc(C3CCN(C4=Nn5c(nnc5C(F)(F)F)CC4)CC3)cc2)CC1=O` [Example 46, 1-ethyl-4-[2-(4-{1-[3-(trifluoromethyl)-7,8-dihydro[1,2,4]triazolo[4,3-b]pyridazin-6-yl]piperidin-4-yl}phenoxy)ethyl]piperazin-2-one] is 1.5 µM; for `O=C1CN(CCOc2ccc(C3CCN(C4=Nn5c(nnc5C(F)(F)F)CC4)CC3)cc2)CCN1C1CC1` [Example 47, 1-cyclopropyl-4-[2-(4-{1-[3-(trifluoromethyl)-7,8-dihydro[1,2,4]triazolo[4,3-b]pyridazin-6-yl]piperidin-4-yl}phenoxy)ethyl]piperazin-2-one] it is 1.4 µM; for `CC(=O)N1CCCN(CCOc2ccc(C3CCN(C4=Nn5c(nnc5C(F)(F)F)CC4)CC3)cc2)CC1` [Example 48, 6-(4-{4-[2-(4-acetyl-1,4-diazepan-1-yl)ethoxy]phenyl}piperidin-1-yl)-3-(trifluoromethyl)-7,8-dihydro[1,2,4]triazolo[4,3-b]pyridazine] it is 0.7 µM. For `C[C@@H]1C(=O)N(C)CCN1CCOc1ccc(C2CCN(C3=Nn4c(nnc4C(F)(F)F)CC3)CC2)cc1` [Example 49, (3R)-1,3-dimethyl-4-[2-(4-{1-[3-(trifluoromethyl)-7,8-dihydro[1,2,4]triazolo[4,3-b]pyridazin-6-yl]piperidin-4-yl}phenoxy)ethyl]piperazin-2-one], half-maximal inhibition (IC50) required 0.045 µM. This IC50 lies about 16-fold lower than the previous one.

Compound `C[C@H]1C(=O)N(C)CCN1CCOc1ccc(C2CCN(C3=Nn4c(nnc4C(F)(F)F)CC3)CC2)cc1` [Example 50, (3S)-1,3-dimethyl-4-[2-(4-{1-[3-(trifluoromethyl)-7,8-dihydro[1,2,4]triazolo[4,3-b]pyridazin-6-yl]piperidin-4-yl}phenoxy)ethyl]piperazin-2-one] showed an IC50 of 0.76 µM. For the compound `CC(=O)N1CCN(CCOc2ccc(C3CCN(C4=Nn5c(nnc5C(F)(F)F)CC4)CC3)cc2)C[C@@H]1C` [Example 52, 6-[4-(4-{2-[(3S)-4-acetyl-3-methylpiperazin-1-yl]ethoxy}phenyl)piperidin-1-yl]-3-(trifluoromethyl)-7,8-dihydro[1,2,4]triazolo[4,3-b]pyridazine], the IC50 came to 0.32 µM.

In general, IC50 refers to the concentration that inhibits the measured activity by half. Low readings indicate higher potency, high ones lower potency.
